In series [1] the test system is PANC-1 human pancreatic ductal adenocarcinoma cell line. As to the kind of experiment: sulforhodamine B anti-proliferative assay, PANC-1. Format: cell-based. The conditions noted are these: PANC-1, 48 hours incubation, SRB; for IC50: Homo sapiens, read-out: Anti-proliferative activity, IC50 (concentration required to inhibit cell growth by 50%). The procedure: (§1) Human colorectal carcinoma HCT-116 and HT-29 cells are routinely maintained in McCoy's 5A medium (Gibco) whereas human melanoma A375 cells and human pancreatic adenocarcinoma PANC-1 cells are cultured in DMEM (Gibco) supplemented with 10% fetal bovine serum (Gibco), 1% penicillin-streptomycin (Gibco) in a 5% CO2, 95% air humidified atmosphere at 37° C.
(§2) For the sulforhodamine B assay, different carcinoma cells were seeded in 96-well plates at a density of 5×10^3 cells/well and incubated with serial dilutions of ent-kaurene diterpenoids FA, FA1, FA2, FA3, FA4 or PA for 48 hours. After incubation, cells were treated with 50% trichloroacetic acid at 4° C. for at least 30 minutes for protein fixing. Cells were then washed with water 4 times prior to a complete dry down of the culture plate. To each well, 100 μL of 0.4% sulforhodamine B in 1% acetic acid was added. After 30-minute incubation at room temperature, cells were washed with 1% acetic acid 4 times. Fixed proteins were fully solubilized with 10 mM Tris base solution (pH 10, 200 μL/well). Spectrophotometric absorbance of samples were measured at 515 nm using a microplate reader (Bio-rad).

Series [2] deals with A375 human melanoma cell line. As to the kind of experiment: sulforhodamine B anti-proliferative assay, A375. The format is cell-based. As to conditions: A375, 48 hours incubation, SRB; for IC50: Homo sapiens, A-375, read-out: Anti-proliferative activity, IC50 (concentration required to inhibit cell growth by 50%). The procedure: as §1, §2
Series [3] relates to HT-29 human colorectal carcinoma cell line. As to the kind of experiment: sulforhodamine B anti-proliferative assay, HT-29. Format: cell-based. As to conditions: HT-29, 48 hours incubation, SRB; for IC50: Homo sapiens, read-out: Anti-proliferative activity, IC50 (concentration required to inhibit cell growth by 50%). As for the experimental part:
as §1, §2

Series [4] relates to HCT-116 human colorectal carcinoma cell line. As to the kind of experiment: sulforhodamine B anti-proliferative assay, HCT-116. As to conditions: HCT-116, 48 hours incubation, SRB; for IC50: Homo sapiens, read-out: Anti-proliferative activity, IC50 (concentration required to inhibit cell growth by 50%). The format is cell-based. The procedure: as §1, §2
Series [5] has as its system HCT-116 colon carcinoma cell-bearing nude mice. The experiment in a line: HCT-116 xenograft experiment in nude mice. The format is in vivo, male BALB/c nude mice. As to conditions: for growth of xenograft tumor in terms of volume: 20 mg/kg i.p. every other day for 21 days, compared to paclitaxel 10 mg/kg (FIG. 4, FIG. 6). The procedure: For the xenograft experiment, HCT-116 cells were implanted subcutaneously in the right and left flanks (1×10^6 cells in 100 μL) of male BALB/c nude mice (n=10/group), which were SPF class and aged 6-7 weeks old weighing between 20 g-25 g. Tumor size was monitored by measuring two perpendicular diameters with a caliper every other day. When tumors were formed to approximately 100 mm^3 seven days after the injection of HCT-116 cells, FA3 or PA was administered (20 mg/kg, every other day by intraperitoneal injection for a total of 21 days). To the paclitaxel group, injection of paclitaxel was given at 10 mg/kg to the nude mice whilst the vehicle group merely received the 2.5% EtOH and Cremphor EL solution, which was the dissolving solution for FA3, PA and paclitaxel. Tumor volume and body weight of mice were recorded at indicated time points during the course of experiment. Tumor volume was calculated as volume=length×width^2×0.5. Weight of tumor xenograft was assessed at the time of sacrificed.
The data are presented as mean±standard error of the mean (S.E.M.). Statistical differences among the experimental groups were tested by one-way analysis of variance (ANOVA). P-value<0.05 was considered as statistically significant.

The subject of series [6] is HCT-116 cells. As to the kind of experiment: flow cytometric annexin V-FITC/propidium iodide apoptosis assay. The format is cell-based, human. The conditions noted are these: HCT-116, 0.25, 0.5 and 1.0 μg/mL for 48 hours, concentration-dependent (FIG. 2). As for the experimental part:
From the flow cytometric analysis, the staining percentage of annexin V/FITC and propidium iodide (PI) is detected as percentage at Q1: necrosis (upper left quarter); Q2: late apoptosis (upper right quarter); Q3: live (lower left quarter); Q4: early apoptosis (lower right quarter).
For the flow cytometric assay, HCT-116 cells were seeded in 6-well plates at a density of 1×10^5 cells/well and incubated with serial dilutions of FA3 for 48 hours. Cells were collected by centrifugation, re-suspended in 500 μL of binding buffer containing 5 μL of propidium iodide and 5 μL of annexin V-FITC, and incubated for 15 minutes in dark. Signals of the cell suspension were then analyzed using a flow cytometer (BD) for apoptotic events.

Each structure is given as a SMILES string. In brackets after ≈: the same amount, converted by molar mass. Where only a bound is given, the exact number is not on record here.

Consider `C=C1C(=O)[C@@]23[C@@H]4OC(C)(C)O[C@@H]2C[C@@H]2C(C)(C)CCC[C@@]2(COC(C)=O)[C@@H]3C(=O)C[C@@H]14` [FA2], for which the IC50 in series [1], in series [2], in series [3] and in series [4] was greater than 2 µg/mL throughout.

For `C=C1C(=O)[C@@]23[C@H](O)C[C@@H]4C(C)(C)CCC[C@@]4(COC(C)=O)[C@@H]2C(=O)C[C@@H]1[C@H]3O` [FA3], the IC50 was determined as 0.413 µg/mL (≈ 1.06 µM) in series [1], 0.668 µg/mL (≈ 1.71 µM) in series [2], 0.424 µg/mL (≈ 1.09 µM) in series [3] and 0.274 µg/mL (≈ 0.701 µM) in series [4]. Also, the “growth of xenograft tumor in terms of volume” value in series [5] is “more sufficiently restrained”. The “growth of xenograft tumor in terms of weight” value in series [5] (20 mg/kg i.p. every other day, day 21, compared to paclitaxel 10 mg/kg (FIG. 3)) was “more sufficiently restrained”. Further, the “change of body weight” value in series [5] (21-day administration, tumor-bearing nude mice (FIG. 5)) was “does not lead to a significant loss of body weight”. In addition, in series [6], the degree of apoptosis entry was “Substantial increase in the degree of apoptosis”.

On to `C=C1C(=O)[C@@]23[C@@H]4OC(C)(C)O[C@@H]2C[C@@H]2C(C)(C)CCC[C@]25CO[C@](O)(C[C@@H]14)[C@@H]53` [FA4], for which the IC50 was greater than 2 µg/mL in series [1], greater than 2 µg/mL in series [2], greater than 2 µg/mL in series [3] and 0.98 µg/mL (≈ 2.52 µM) in series [4].

As to `C=C1C(=O)[C@@]23C(O)C[C@@H]4C(C)(C)CCCC4(COC(C)=O)[C@@H]2[C@@H](O)C[C@@H]1[C@H]3O` (stereo partly shown) [FA, flexicaulin A, reference compound], the “Anti-proliferative activity, IC50 (concentration required to inhibit cell growth by 50%)” value in series [1] was found to be 1.024 µg/mL; in series [2], 1.624 µg/mL; in series [3] it was 0.9732 µg/mL; in series [4], 0.7215 µg/mL.

As for `C=C1C(=O)[C@]23[C@H](O)C[C@@H]4C(C)(C)CCC[C@]45CO[C@](O)(C[C@@H]1[C@H]2O)[C@@H]53` [PA, pseudoirroratin A, reference compound], the “Anti-proliferative activity, IC50 (concentration required to inhibit cell growth by 50%)” value was 0.4396 µg/mL in series [1], 0.8737 µg/mL in series [2], 0.4194 µg/mL in series [3] and 0.2702 µg/mL in series [4]. Besides, the “growth of xenograft tumor in terms of volume” value in series [5] is “not as efficient as paclitaxel”.

Source of the values: US10493056B2, “Method of use of diterpenoid derivatives as anticancer agents” (Hong Kong Baptist University, priority 2016, dated 2019).
